Experimental data taken from patent publication US20180296530A1, “METHOD FOR TREATING ATOPIC DERMATITIS” (priority 2015, published 2018).

Assays:
[1] = test system: Patients aged 1 to 18 years with physician-diagnosed AD and sleep problems; assay: Clinical trial: sleep evaluated by actigraphy; format: in vivo, human
Protocol: Patients aged 1 to 18 years with physician-diagnosed AD involving at least 5% of the total body surface area were recruited from the pediatric and dermatology outpatient departments of the National Taiwan University Hospital from Aug. 1, 2012, through Jan. 31, 2013. Follow-up was completed on Apr. 13, 2013. Those patients with sleep problems occurring more than 3 days per week during the previous 3 months were eligible. […] They were then randomized to receive oral melatonin, 3 mg/d (General Nutrition Corporation), or placebo (Standard Chem & Pharm Co, Ltd) at bedtime for 4 weeks. After a 2-week washout period, participants crossed to the alternate treatment. Sleep was evaluated by actigraphy (Mini-Mitter Actiwatch; Philips-Respironics). Each participant wore the actigraphic device on the nondominant wrist for 3 consecutive nights starting 3 nights before each treatment period and for the last 3 nights of each treatment period. In a subgroup of patients who offered consent, polysomnography was performed on the night before the first day and on the last night of each treatment period.

[2] = test system: serum total IgE and allergen-specific IgE; assay: Clinical trial: serum total and allergen-specific IgE (ImmunoCAP); format: in vivo, human
[3] = Clinical trial: nocturnal urinary 6-sulfatoxymelatonin by ELISA; format: in vivo, human; details: after treatment with melatonin compared with placebo, P<0.001
Protocol: The first urine sample on the morning after each actigraphic examination was obtained. Levels of urinary 6-sulfatoxymelatonin were assayed by enzyme-linked immunosorbent assay with a commercialized kit (IBL International GmbH) and were used to represent the melatonin level throughout the previous night.

[4] = test system: DNCB-induced AD mouse model; assay: Example 5: dermatitis severity, topical melatonin in DNCB-induced AD mouse model; format: in vivo, Balb/c mice
Protocol: Four- to six-week-old Balb/c mice were maintained under specific pathogen-free conditions. Animals were housed in an air-conditioned animal room (25±1° C.; relative humidity 40±5%) and were fed a laboratory diet and distilled water. Animal care and handling protocols were approved by the Animal Committee of the College of Medicine, Taiwan University, and all procedures were conducted in accordance with the U.S. National Institute of Health guidelines.
The protocol for establishing an AD mouse model in this Example was modified from those described previously. Briefly, referring to FIG. 4, DNCB-induced AD mouse model was prepared by the repeated applications of 20 μL of 1% DNCB in acetone/olive oil (4:1) to the outer and inner surfaces of mouse ears and 100 μL of the same solution to the shaved back skin once on days 1, 2, and 3. Mice of Control group were treated with the identical volumes of vehicle. […]
Macroscopic assessment of the severity of dermatitis was determined by a scoring method as described previously. Briefly, the degree of each sign were scored as 0 (none), 1 (mild), 2 (moderate), and 3 (severe). […] Ear thickness was measured with a thickness gauge (Digimatic Indicator, Mitsutoyo, Tokyo). […]

serum total IgE = assay: Example 5: serum IgE in DNCB-induced AD mouse model; format: in vivo, Balb/c mice; details: 5% melatonin treatment compared with the DNCB-stimulated group, p=0.02, Day 20
Protocol: (§1) The protocol for establishing an AD mouse model in this Example was modified from those described previously. Briefly, referring to FIG. 4, DNCB-induced AD mouse model was prepared by the repeated applications of 20 μL of 1% DNCB in acetone/olive oil (4:1) to the outer and inner surfaces of mouse ears and 100 μL of the same solution to the shaved back skin once on days 1, 2, and 3. Mice of Control group were treated with the identical volumes of vehicle.
(§2) The DNCB-sensitized mice were randomly assigned to one of three groups: DNCB (Positive control), DNCB+3% topical melatonin (Treatment: low-dose), DNCB+5% topical melatonin (Treatment: high-dose). Each group (including Control group) consisted of 5 mice. From days 9 to 19, sensitized mice were challenged by applying 0.5% DNCB to the skin surfaces. For the two groups treated with topical melatonin groups, 0.3 mg of topical melatonin ointment (3% or 5% melatonin in Vaseline) was given together with DNCB during the challenge period. […]
(§3) Blood and dorsal skin of each mouse were collected on the last day of the experiment (Day 20) and stored at −80° C. until use. Serum IgE levels were measured using the ImmunoCAP fluorescence enzyme immunoassay (Phadia AB, Sweden) according to the manufacturer's instructions. The dorsal skin mRNA expression of the cytokines IL-4, IL-13, and IL-17 were measured by RT-PCR.

IL-17 = assay: Example 5: dorsal skin IL-17 mRNA by RT-PCR; format: in vivo, Balb/c mice
Protocol: as §1, §2, §3

[5] = after oral melatonin 3 mg/d at bedtime for 4 weeks, mean, actigraphy
[6] = after vs before oral melatonin 3 mg/d, 4 weeks, mean
[7] = melatonin phase, before treatment, mean, actigraphy
[8] = melatonin vs placebo, adjusted for age and sex

## COc1ccc2[nH]cc(CCNC(C)=O)c2c1 [Melatonin, melatonin]
[1]; FIG. 2D, almost unchanged in placebo treatment
  sleep-onset latency, Wilcoxon signed rank test: decreased the sleep-onset latency significantly
[1]; after melatonin treatment, 17 of 37 (placebo 13 of 38 [34%])
  patients who believed that their sleep had improved: 46%
[1]; after oral melatonin 3 mg/d at bedtime for 4 weeks, mean
  Fragmentation index, After: 13.6
[1]; [5]
  Mobility in sleep, After: 9.7%
  Sleep efficiency, After: 76.7%
  Sleep-onset latency, After: 21.6 min
  Total sleep time, After: 390.1 min/night
  WASO (wake after sleep onset), After: 74.5 min
  Wake in sleep interval, After: 15.6%
[1]; [6]
  Fragmentation index, Difference: −2.4
  Mobility in sleep, Difference: −2.0%
  Sleep efficiency, Difference: 2.4%
  Sleep-onset latency, Difference: -23.4 min
  Total sleep time, Difference: 10.0 min/night
  WASO (wake after sleep onset), Difference: -9.0 min
  Wake in sleep interval, Difference: −2.1%
[1]; between the melatonin and placebo phases
  effect on the other sleep variables measured by actigraphy: did not differ significantly
[1]; linear mixed-effects model, adjusted for age and sex
  decrease of the sleep-onset latency more than placebo: 21.4 min
[1]; melatonin group, first treatment period, after oral 3 mg/d for 4 weeks, actigraphy
  sleep-onset latency, first treatment period, after: 24.4 min
[1]; melatonin group, first treatment period, before treatment, actigraphy
  sleep-onset latency, first treatment period, before: 42.8 min
[1]; melatonin group, second treatment period, after oral 3 mg/d for 4 weeks, actigraphy
  sleep-onset latency, second treatment period, after: 19.1 min
[1]; melatonin group, second treatment period, before treatment, actigraphy
  sleep-onset latency, second treatment period, before: 46.7 min
[1]; [7]
  Mobility in sleep, Before: 11.6%
  Sleep efficiency, Before: 74.4%
  Sleep-onset latency, Before: 44.9 min
  Total sleep time, Before: 380.1 min/night
  WASO (wake after sleep onset), Before: 83.6 min
  Wake in sleep interval, Before: 17.6%
[1]; melatonin phase, before treatment, mean, greater scores indicate more fragmented sleep
  Fragmentation index, Before: 16.0
[1]; melatonin treatment compared to placebo, FIG. 3
  effect on sleep efficiency, wake time during sleep, or sleep fragmentation: no significant effect
[1]; [8]
  Fragmentation index, Difference of Treatment Effect From the Linear Mixed-Effects Model, Mean: −3.2
  Mobility in sleep, Difference of Treatment Effect From the Linear Mixed-Effects Model, Mean: −2.9%
  Sleep efficiency, Difference of Treatment Effect From the Linear Mixed-Effects Model, Mean: 2.2%
  Sleep-onset latency, Difference of Treatment Effect From the Linear Mixed-Effects Model, Mean: -21.4 min
  Total sleep time, Difference of Treatment Effect From the Linear Mixed-Effects Model, Mean: 24.8 min/night
  WASO, Difference of Treatment Effect From the Linear Mixed-Effects Model, Mean: -8.2 min
  Wake in sleep interval, Difference of Treatment Effect From the Linear Mixed-Effects Model, Mean: −2.3%
[1]; oral melatonin treatment
  shortening of sleep-onset latency, mean: 23.4 min
  shortening of sleep-onset latency, mean percent: 52.1%
[2]; after oral melatonin 3 mg/d at bedtime for 4 weeks, mean, serum
  IgE level, After: 2483.8 kU/L
[2]; [6]
  IgE level, Difference: 108.4 kU/L
[2]; melatonin phase, before treatment, mean, serum
  IgE level, Before: 2337.2 kU/L
[2]; melatonin vs placebo, P>0.05
  effect on allergen-specific IgE levels to Derp, Derf, or S aureus enterotoxins A or B: no significant difference
  effect on total IgE level: no significant difference
[2]; [8]
  IgE level, Difference of Treatment Effect From the Linear Mixed-Effects Model, Mean: −113.6 kU/L
[3]
  Nocturnal urinary 6-sulfatoxymelatonin levels: significantly increased
[4]; DNCB-stimulated mice treated with melatonin, FIG. 5, less skin erythema, less skin excoriation, improved hair growth
  gross findings of dermatitis: dermatitis was improved
[4]; after topical melatonin treatment, decreased from 12, total score 0 to 12, Day 20, concentration not given
  Dermatitis clinical score: 3
Serum total IgE
  serum total IgE level: significantly reduced
IL-17; 5% melatonin treatment compared with 3% melatonin treatment
  skin mRNA expression of IL-17, dose-response: decreased more
IL-17; after topical melatonin treatment (3% or 5%), FIG. 11B
  skin mRNA expression of IL-17: decreased
